{
  "source": "paper PMC12362244",
  "about": "“Fidelity, specialization, and evolution of Paramecium PolX DNA polymerases involved in programmed double-strand break DNA repair” (Nucleic Acids Research, 2025)",
  "key": {"[1]": {"target": "T1, PolXcΔNter (Paramecium tetraurelia, UniProt A0DCU7)", "T1 construct": "gene GSPATT00015723001; lacks residues 1-266 (BRCT and linker); cleavable N-terminal 14-His tag; E. coli BL21 Star (DE3)", "T1 sequence (A0DCU7 267-608)": "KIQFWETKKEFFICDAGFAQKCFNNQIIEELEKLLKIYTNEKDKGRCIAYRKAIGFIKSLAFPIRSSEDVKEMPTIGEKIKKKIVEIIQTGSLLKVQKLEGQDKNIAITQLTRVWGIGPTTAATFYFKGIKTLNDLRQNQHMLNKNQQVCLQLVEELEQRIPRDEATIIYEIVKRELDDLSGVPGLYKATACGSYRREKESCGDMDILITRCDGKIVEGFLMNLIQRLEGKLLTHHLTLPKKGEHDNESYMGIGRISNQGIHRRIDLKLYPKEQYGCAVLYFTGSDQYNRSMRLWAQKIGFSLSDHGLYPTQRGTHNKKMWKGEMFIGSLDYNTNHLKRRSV", "experiment": "gap-filling, FAM-primer urea-PAGE", "format": "biochemical", "settings": "gap with nick in template strand; 1 nM enzyme, 1 mM dGTP, 5 mM MgCl2, pH 7.5, 27°C"}, "[2]": {"target": "T2, HsPolλ (Homo sapiens, UniProt Q9UGP5)", "T2 construct": "gene POLL; wild type; cleavable N-terminal 14-His tag; E. coli", "T2 sequence (Q9UGP5 1-575)": "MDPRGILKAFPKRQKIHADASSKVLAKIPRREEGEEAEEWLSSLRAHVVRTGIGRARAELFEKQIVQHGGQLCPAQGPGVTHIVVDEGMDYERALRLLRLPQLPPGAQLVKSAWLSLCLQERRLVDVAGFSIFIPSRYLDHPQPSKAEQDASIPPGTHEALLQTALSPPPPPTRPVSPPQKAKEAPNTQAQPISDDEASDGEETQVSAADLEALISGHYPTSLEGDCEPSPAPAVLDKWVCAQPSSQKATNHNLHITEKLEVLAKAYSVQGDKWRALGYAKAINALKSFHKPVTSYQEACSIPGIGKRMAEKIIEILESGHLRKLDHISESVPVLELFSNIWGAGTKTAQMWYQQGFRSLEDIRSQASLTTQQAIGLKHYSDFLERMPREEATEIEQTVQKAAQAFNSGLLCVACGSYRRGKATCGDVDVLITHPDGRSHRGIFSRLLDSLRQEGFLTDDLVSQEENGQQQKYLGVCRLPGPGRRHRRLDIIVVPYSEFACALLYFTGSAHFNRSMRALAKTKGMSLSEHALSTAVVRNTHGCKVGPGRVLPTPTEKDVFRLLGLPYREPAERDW", "experiment": "gap-filling, FAM-primer urea-PAGE", "format": "biochemical", "settings": "continuous template strand; 50 nM enzyme, 1 mM dGTP, 5 mM MgCl2, pH 7.5, 37°C"}},
  "data": [
    {"compound": "Nc1nc2c(ncn2[C@H]2C[C@H](O)[C@@H](COP(=O)(O)OP(=O)(O)OP(=O)(O)O)O2)c(=O)[nH]1", "note": "[dGTP]", "values": [
      {"measurement": "gap-filling, FAM-primer urea-PAGE", "setting": "[1]", "value": "PolXaΔNter, PolXbΔNter, and PolXcΔNter displayed the highest apparent activity"},
      {"measurement": "gap-filling, FAM-primer urea-PAGE", "setting": "[2]", "value": "display gap-filling activity similar to hPolλ when using a continuous template strand"}
    ]}
  ]
}
